ChEMBL document CHEMBL1201862, “PubChem BioAssay data set” (2004)
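Where inhibition never reached the appropriate level, the endpoint shown equals the highest concentration tested. Otherwise, values were interpolated linearly from a five-concentration, 48-hour dose response in 96-well plates. The concentration for 50% growth inhibition is given as GI50.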 Calls of active or inactive are those of the source. No stated cut-off is given here; in the data, active = GI50 up to about 1.1 µM and inactive = higher.

Assays:
Experiment in all cases: NCI-60 cell line screen, 48 h
[1] = test system: 786-0
[2] = test system: A498
[3] = test system: A549
[4] = test system: ACHN
[5] = test system: BT-549
[6] = test system: CAKI-1
[7] = test system: CCRF-CEM
[8] = test system: COLO 205
[9] = test system: DU-145
[10] = test system: EKVX
[11] = test system: HCC 2998
[12] = test system: HCT-116
[13] = test system: HCT-15
[14] = test system: HL-60
[15] = test system: HOP-62
[16] = test system: HOP-92
[17] = test system: HT-29
[18] = test system: Hs-578T
[19] = test system: IGROV-1
[20] = test system: K562
[21] = test system: KM12
[22] = test system: LOX IMVI
[23] = test system: M14
[24] = test system: MCF7
[25] = test system: MDA-MB-231
[26] = test system: MDA-MB-435
[27] = test system: MDA-N
[28] = test system: MOLT-4
[29] = test system: Malme-3M
[30] = test system: NCI-H226
[31] = test system: NCI-H23
[32] = test system: NCI-H460
[33] = test system: NCI-H522
[34] = test system: NCI/ADR-RES
[35] = test system: OVCAR-3
[36] = test system: OVCAR-4
[37] = test system: OVCAR-5
[38] = test system: OVCAR-8
[39] = test system: PC-3
[40] = test system: RPMI-8226
[41] = test system: RXF 393
[42] = test system: SF-268
[43] = test system: SF-295
[44] = test system: SF-539
[45] = test system: SK-MEL-28
[46] = test system: SK-MEL-2
[47] = test system: SK-MEL-5
[48] = test system: SK-OV-3
[49] = test system: SN12C
[50] = test system: SNB-19
[51] = test system: SNB-75
[52] = test system: SR
[53] = test system: SW-620
[54] = test system: T47D
[55] = test system: TK-10
[56] = test system: U-251
[57] = test system: UACC-257
[58] = test system: UACC-62
[59] = test system: UO-31

C[C@H]1CCC/C=C/[C@@H]2C[C@H](OC(=O)CN(C)C)C[C@H]2[C@H](O)/C=C/C(=O)O1
GI50 [1]: 46.2 nM (active)
GI50 [2]: 83 nM (active)
GI50 [3]: 286 nM (active)
GI50 [4]: 200 nM (active)
GI50 [5]: 232 nM (active)
GI50 [6]: 161 nM (active)
GI50 [7]: 284 nM (active)
GI50 [8]: 47.6 nM (active)
GI50 [9]: 401 nM (active)
GI50 [10]: 188 nM (active)
GI50 [11]: 61.2 nM (active)
GI50 [12]: 242 nM (active)
GI50 [13]: 188 nM
GI50 [14]: 220 nM (active)
GI50 [15]: 210 nM (active)
GI50 [16]: 1030 nM (active)
GI50 [17]: 105 nM (active)
GI50 [18]: 45.8 nM (active)
GI50 [19]: 570 nM (active)
GI50 [20]: 241 nM (active)
GI50 [21]: 52.2 nM (active)
GI50 [22]: 86.1 nM (active)
GI50 [23]: 77.8 nM (active)
GI50 [24]: 187 nM (active)
GI50 [25]: 15.2 nM (active)
GI50 [26]: 157 nM (active)
GI50 [27]: 135 nM (active)
GI50 [28]: 187 nM (active)
GI50 [29]: 73.8 nM (active)
GI50 [30]: 28.8 nM (active)
GI50 [31]: 129 nM (active)
GI50 [32]: 365 nM (active)
GI50 [33]: 425 nM (active)
GI50 [34]: 13.9 nM (active)
GI50 [35]: 169 nM (active)
GI50 [36]: 154 nM (active)
GI50 [37]: 102 nM (active)
GI50 [38]: 97 nM (active)
GI50 [39]: 141 nM (active)
GI50 [40]: 303 nM (active)
GI50 [41]: 38.3 nM (active)
GI50 [42]: 200 nM (active)
GI50 [43]: 165 nM (active)
GI50 [44]: 148 nM (active)
GI50 [45]: 138 nM (active)
GI50 [46]: 153 nM (active)
GI50 [47]: 39.5 nM (active)
GI50 [48]: 58.6 nM (active)
GI50 [49]: 158 nM (active)
GI50 [50]: 319 nM (active)
GI50 [51]: 155 nM (active)
GI50 [52]: 153 nM (active)
GI50 [53]: 156 nM (active)
GI50 [54]: 329 nM (active)
GI50 [55]: 100 nM (active)
GI50 [56]: 254 nM (active)
GI50 [57]: 109 nM (active)
GI50 [58]: 108 nM (active)
GI50 [59]: 58.1 nM (active)
